Assay results published in patent publication US20240376097A1, “BCL-2 Inhibitor” (BeiGene Ltd., priority 2020, published 2024).
Like-named read-outs stand apart in the source and are kept apart here.

How the values were obtained:
[1] = biological target: recombinant human Bcl-2 D103Y protein (Homo sapiens (Human), UniProt P10415, D103Y); test: Bcl-2-D103Y Biochemical Assay (TR-FRET); type: binding; settings: for IC50: TR-FRET, FITC labeled Bak peptide; for Ratio of Bcl-2 D103Y/Bcl-2 WT: ratio of IC50
Summary of the method: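 Recombinant human Bcl-2 D103Y binding to its ligand measured by TR-FRET (ex 337 nm, em 490/520 nm) with increasing compound concentrations. Percent inhibition from the 490/520 nm ratio; IC50 from four-parameter logistic fit.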

[2] = biological target: Recombinant human Bcl-2 protein (Homo sapiens (Human), UniProt P10415); test: Bcl-2 TR-FRET Assay; type: binding
Summary of the method: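 0.05 nM Bcl-2 pre-incubated 0.5 h at room temperature with 10-point compound dilutions (top final 1, 0.1, 0.02 or 0.01 uM) in 20 mM potassium phosphate pH 7.5, 50 mM NaCl, 1 mM EDTA, 0.05% Tween-20, 0.01% BSA; FITC-Bak peptide (0.5 nM) and anti-6His Tb cryptate added, 1 h. IC50 from four-parameter logistic fit.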

[3] = test system: recombinant human Bcl-2-G101V protein; test: Bcl-2-G101V TR-FRET Assay; type: binding; settings: ratio of biochemical IC50 Bcl-2 G101V / Bcl-2 WT
Summary of the method: (§1)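 Percent inhibition of the Bcl-2-G101V–ligand interaction was computed from the 490 nm to 520 nm emission ratio after 337 nm excitation, over increasing compound concentrations; a four-parameter logistic fit gave IC50.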

[4] = biological target: recombinant human Bcl-2-G101V protein (Homo sapiens (Human), UniProt P10415, G101V); test: Bcl-2-G101V TR-FRET Assay; type: binding; settings: Bcl-2 G101V mutant, TR-FRET; read-out: Biochemical assay (IC50, nM) Bcl-2 G101V
Summary of the method: as §1

[5] = test system: BCL-2 G101V knock-in cell line H96 (derive from RS4;11); test: Bcl 2-G101V Knock-In RS4;11 Cell Proliferation Assay; type: cell-based; settings: RS4;11 Bcl-2 G101V knock-in clone H96, 48 hrs, CellTiter-GLO, read-out: Cellular proliferation assay (IC50, nM) RS4
Summary of the method: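 H96, a CRISPR-generated RS4;11 clone carrying BCL2-G101V knock-in (WES/RNA-seq validated), seeded 50,000 per well and exposed 48 h at 37 °C to 10-point dilutions topping at 1 or 10 μM. Viability by CellTiter-Glo luminescence; mean IC50.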

[6] = test system: RS4;11 (BCL-2 dependent acute lymphoblastic leukemia cell line); test: RS4;11 Cell Proliferation Assay; type: cell-based; settings: read-out: Cellular proliferation assay (IC50, nM) RS4
Summary of the method: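 RS4;11 cells, 50,000 per well in RPMI-1640 with 10% FBS, treated 48 h at 37 °C with a 10-point dilution series topping at 1 μM. Viability read by CellTiter-Glo ATP luminescence; mean IC50 reported.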

[7] = Bcl-2 wild type, TR-FRET, read-out: Biochemical assay (IC50, nM) Bcl-2 WT
[8] = wild type Bcl-2, unit inferred, read-out: Bcl-2 WT
[9] = Homo sapiens, RS4-11, RS4;11 cells

Molecule | IC50 [1] | Ratio of Bcl-2 D103Y/Bcl-2 WT [1] | IC50 [2, 7] | IC50 [2, 8] | Ratio of Bcl-2 G101V/WT [3] | IC50 [4] | IC50 ([5]; Homo sapiens) | IC50 [6, 9] | IC50 [5] | IC50 ([6]; RS4;11 cells)
CC(C)c1ccccc1[C@@H]1CN(Cc2ccnc3c2OCC(C)(C)O3)CCN1C1CC2(C1)CN(c1ccc(C(=O)NS(=O)(=O)c3ccc(NC[C@H]4CC[C@](C)(O)CC4)c([N+](=O)[O-])c3)c(Oc3cnc4[nH]cc(F)c4c3)c1)C2 [Example 317] | 0.057 nM | 1.7 | 0.033 nM | 0.033 nM | 3.6 | 0.12 nM | 0.43 nM | 0.19 nM |  | 
COc1cc(CN2CCN(C3CC4(C3)CN(c3ccc(C(=O)NS(=O)(=O)c5ccc(NC[C@H]6CC[C@](C)(O)CC6)c([N+](=O)[O-])c5)c(Oc5cnc6[nH]cc(F)c6c5)c3)C4)[C@H](c3ccccc3C(C)C)C2)ccc1OC(C)C [Example 349, 2-((3-fluoro-1H-pyrrolo[2,3-b]pyridin-5-yl)oxy)-N-((4-((((1r,4r)-4-hydroxy-4-methylcyclohexyl)methyl)amino)-3-nitrophenyl)sulfonyl)-4-(6-((R)-4-(4-isopropoxy-3-methoxybenzyl)-2-(2-isopropylphenyl)piperazin-1-yl)-2-azaspiro[3.3]heptan-2-yl) benzamide] | 0.17 nM | 0.9 | 0.2 nM | 0.2 nM | 2.2 | 0.43 nM | 0.44 nM | 0.16 nM |  | 
CC(C)c1ccccc1C1CN(Cc2cccc3c2OCCCO3)CCN1C1CC2(CCN(c3ccc(C(=O)NS(=O)(=O)c4ccc(NC[C@H]5CC[C@](C)(O)CC5)c([N+](=O)[O-])c4)c(Oc4cnc5[nH]ccc5c4)c3)CC2)C1 (some centres unmarked) [Example 107, 2-((1H-pyrrolo[2,3-b]pyridin-5-yl)oxy)-4-(2-(4-((3,4-dihydro-2H-benzo[b][1,4]dioxepin-6-yl)methyl)-2-(2-isopropylphenyl)piperazin-1-yl)-7-azaspiro[3.5]nonan-7-yl)-N-((4-((((1r,4r)-4-hydroxy-4-methylcyclohexyl)methyl)amino)-3-nitrophenyl)sulfonyl)benzamide] | 0.31 nM | 2.8 | 0.11 nM | 0.11 nM | 5.1 | 0.56 nM | 1.77 nM | 0.33 nM |  | 
CC(C)c1ccccc1C1CN(Cc2cnn(C)c2)CCN1C1CC2(CCN(c3ccc(C(=O)NS(=O)(=O)c4ccc(NC[C@H]5CC[C@](C)(O)CC5)c([N+](=O)[O-])c4)c(Oc4cnc5[nH]ccc5c4)c3)CC2)C1 (some centres unmarked) [Example 22, 2-((1H-pyrrolo[2,3-b]pyridin-5-yl)oxy)-N-((4-((((1r,4r)-4-hydroxy-4-methylcyclohexyl)methyl)amino)-3-nitrophenyl)sulfonyl)-4-(2-(2-(2-isopropylphenyl)4-((1-methyl-1H-pyrazol-4-yl)methyl)piperazin-1-yl)-7-azaspiro[3.5]nonan-7-yl) benzamide] | 0.12 nM | 9.2 | 0.013 nM | 0.013 nM | 6.1 | 0.079 nM | 2.6 nM | 0.46 nM |  | 
COc1cc(CN2CCN(C3CC4(CCN(c5ccc(C(=O)NS(=O)(=O)c6ccc(NC[C@H]7CC[C@](C)(O)CC7)c([N+](=O)[O-])c6)c(Oc6cnc7[nH]cc(F)c7c6)c5)CC4)C3)[C@H](c3ccccc3C(C)C)C2)cc2c1OCCC2 [Example 299, 2-((3-fluoro-1H-pyrrolo[2,3-b]pyridin-5-yl)oxy)-N-((4-((((1r,4r)-4-hydroxy-4-methylcyclohexyl)methyl)amino)-3-nitrophenyl)sulfonyl)-4-(2-((R)-2-(2-isopropylphenyl)-4-((8-methoxychroman-6-yl)methyl)piperazin-1-yl)-7-azaspiro[3.5]nonan-7-yl)benzamide] | 0.13 nM | 1.0 | 0.13 nM | 0.13 nM | 1.9 | 0.25 nM | 0.47 nM | 0.27 nM |  | 
[2H]C([2H])([2H])Oc1cc(CN2CCN(C3CC4(C3)CN(c3ccc(C(=O)NS(=O)(=O)c5ccc(NC[C@H]6CC[C@](C)(O)CC6)c([N+](=O)[O-])c5)c(Oc5cnc6[nH]ccc6c5)c3)C4)[C@H](c3ccccc3C(C)C)C2)cc2ccoc12 [Example 323, 2-((1H-pyrrolo[2,3-b]pyridin-5-yl)oxy)-N-((4-((((1r,4r)-4-hydroxy-4-methylcyclohexyl)methyl)amino)-3-nitrophenyl)sulfonyl)-4-(6-((R)-2-(2-isopropylphenyl)-4-((7-(methoxy-d3)benzofuran-5-yl)methyl)piperazin-1-yl)-2-azaspiro [3.3]heptan-2-yl)benzamide] | 0.19 nM | 0.87 | 0.22 nM | 0.22 nM | 2.1 | 0.45 nM | 0.42 nM | 0.21 nM |  | 
2-((1H-pyrrolo[2,3-b]pyridin-5-yl) oxy)-N-((4-((((1r,4r)-4-hydroxy-4- methylcyclohexyl)methyl)amino)- 3-nitrophenyl)sulfonyl)-4-(2-((R)- 2-(2-isopropylphenyl)-4-((7- methoxybenzofuran-5-yl)methyl) piperazin-1-yl)-7-azaspiro[3.5] nonan-7-yl)benzamide [Example 280] | 0.23 nM | 0.89 | 0.26 nM | 0.26 nM | 2.2 | 0.56 nM |  |  | 0.43 nM | 0.14 nM
CCOc1ccc(CN2CCN(C3CC4(CCN(c5ccc(C(=O)NS(=O)(=O)c6ccc(NC[C@H]7CC[C@](C)(O)CC7)c([N+](=O)[O-])c6)c(Oc6cnc7[nH]ccc7c6)c5)CC4)C3)C(c3ccccc3C(C)C)C2)cc1 (some centres unmarked) [Example 40, 2-((1H-pyrrolo[2,3-b]pyridin-5-yl)oxy)-4-(2-(4-(4-ethoxybenzyl)-2-(2-isopropylphenyl)piperazin-1-yl)-7-azaspiro[3.5]nonan-7-yl)-N-((4-((((1r,4r)-4-hydroxy-4-methylcyclohexyl)methyl)amino)-3-nitrophenyl)sulfonyl)benzamide] | 0.72 nM | 3.8 | 0.19 nM | 0.19 nM | 6.8 | 1.3 nM | 8.4 nM | 0.85 nM |  | 
COc1cc(CN2CCN(C3CC4(C3)CN(c3ccc(C(=O)NS(=O)(=O)c5ccc(NC[C@H]6CC[C@](C)(O)CC6)c([N+](=O)[O-])c5)c(Oc5cnc6[nH]cc(F)c6c5)c3)C4)[C@H](c3ccccc3C(C)C)C2)ccc1OC1COC1 [Example 351] | 0.07 nM | 1.7 | 0.042 nM | 0.04 nM | 2.6 | 0.11 nM | 0.13 nM | 0.09 nM |  | 
C#Cc1ccc(CN2CCN(C3CC4(CCN(c5ccc(C(=O)NS(=O)(=O)c6ccc(NC[C@H]7CC[C@](C)(O)CC7)c([N+](=O)[O-])c6)c(Oc6cnc7[nH]ccc7c6)c5)CC4)C3)C(c3ccccc3C(C)C)C2)cc1OC (some centres unmarked) [Example 162] | 0.61 nM | 1.6 | 0.38 nM | 0.38 nM | 3.8 | 1.5 nM | 2.04 nM | 0.373 nM |  | 
